# Like-named read-outs stand apart in the source and are kept apart here.
# Assays:
# female rat uterus = assay type: in vivo, female Sprague/Dawley rats
# Protocol: (§1) TCDD or MCDF was co-administered with a second dose of estradiol and the animals were killed 48-hours later. A second group of animals was similarly treated with corn oil, TCDD, MCDF, or TCDD plus MCDF, all administered in corn oil at 10 ml/kg and terminated 72 hours later.
# (§2) The animals were terminated by cervical dislocation. Livers were perfused with ice-cold TEDG buffer (10 mM Tris-HCl, 1.5 mM EDTA-4Na, 1 mM dithiothreitol, 10% glycerol (v/v), pH 7.4). Following perfusion in situ, livers were removed, weighed, and homogenized in ice-cold TEDG buffer. Uteri were also removed, weighed, and homogenized in ice-cold buffer. The homogenates were then centrifuged at 800×g […] for 15 minutes and the nuclear pellets were stored at -80° C. The supernatants were further centrifuged at 180,000×g for 1.5 hour. The cytosolic supernatant was also stored at -80° C. Estrogen and progesterone receptor levels were determined within 7 days.
# nuclear ER [1] = test: Nuclear ER levels in MCF-7 cells; assay type: cell-based, human
# Protocol: MCF-7 cells, obtained from American Type Culture Collection (Rockville, Ma.), were maintained at 37° C. in closed Corning T-25, 75 or 150 cm^2 flasks (Corning Glassworks, Corning, N.Y.) and passaged in logarithmic growth phase.
# For the 2,3,7,8-TCDD antiestrogenicity studies, cells were treated 24 hours prior to harvesting with various concentrations of 2,3,7,8-TCDD (0.1 nM to 100 nM 2,3,7,8-TCDD). Interactive effects between 2,3,7,8-TCDD and estradiol were conducted using these same concentrations of 2,3,7,8-TCDD and 10 nM estradiol. […]
# MCF-7 cells from a single near confluent T-25 flask were incubated at 37° C. for 0.5 hours prior to harvesting with 10 nM 2,4,6,7-[^3H]-estradiol. The medium was then decanted and the cells were rinsed once with Hanks' balanced salt solution containing 1 mM EDTA. The cells were collected by centrifugation, washed gently in 2 ml of TEDG buffer and homogenized in 300 μl of TEDG buffer containing protease inhibitors [soybean trypsin inhibitor 5 mg/ml (Sigma), leupetin 1 mg/ml (Sigma), and phenylmethylsulfonyl fluoride 1 mg/ml (Sigma) by 40 strokes of a Dounce homogenizer. The homogenate was centrifuged at 800×g for 10 minutes. The crude nuclear pellet was resuspended in 300 μl of TEDGK buffer (10 mM Tris-HCl, 1.5 mM EDTA-4Na, 10 mM dithiothreitol, 10% (v/v) glycerol, 0.8 M KCl, pH 8.5 at 4° C.). The nuclear ER levels were then determined as described below.
# The nuclear extract previously obtained was incubated with 10 nM [^3 H]-estradiol plus or minus radioinert diethylstilbestrol for 1 hour at 0-4° C., with resuspension by agitation every 15 minutes. The sample was then centrifuged at 180,000×g for 30 minutes, then 200 μl of the supernatant obtained was layered onto linear 1-20% sucrose gradients prepared in TEDGMK buffer. As before, the gradients were centrifuged at 406,000×g for 2.5 hours in a vertical rotor. Following centrifugation, 30 fractions of […] were collected and the radioactivity in each sample was determined.
# nuclear ER [2] = details: cited from earlier work
# estrogen receptor = details: rat, in vivo; cited from earlier work
# [3] = tested on: progesterone receptor (PR); assay type: in vivo, female Sprague/Dawley rats
# Protocol: as §1, §2
# (§3) Estrogen and progesterone receptor levels were determined by the hydroxyapatite assay as described by Clark et al. (J. Steroid, Biochem., 16, 323-328 (1982)). […] Following the incubations, samples were counted and specific binding was calculated by subtraction of nonspecific from total binding. Assuming one steroid molecule binds to one estrogen/progesterone receptor, the number of moles of receptor can be calculated given the specific activity of the radioligand. […] Significant differences were determined by ANOVA.
# estrogen receptor (ER) = assay type: in vivo, female Sprague/Dawley rats
# Protocol: as §1, §2, §3
compound,measurement,setting,value
"Cc1cc(Cl)cc2c1oc1cc(Cl)cc(Cl)c12 [MCDF, 6-methyl 1,3,8-trichlorodibenzofuran]",uterine wet weights compared to corn oil treated animals,female rat uterus; MCDF alone,significantly decreased
same,estradiol induced increase in uterine wet weight,female rat uterus; co-treated animals,partially inhibited
same,Uterine Wet Weight,female rat uterus; cotreatment with E-2,0.255 ± 0.031 % body wt
same,Uterine Wet Weight,"female rat uterus; rat, in vivo",0.090 ± 0.113 % body wt
same,ERn,"nuclear ER [1]; 2,3,7,8-TCDD (10 nM) + MCDF (15 μM)",147.5(9.6) fmol/mg protein
same,ERn,"nuclear ER [1]; 2,3,7,8-TCDD (10 nM) + MCDF (50 μM)",136.0(14.7) fmol/mg protein
same,ERn,"nuclear ER [1]; 2,3,7,8-TCDD (10 nM) + MCDF (75 μM)",133.1(10.4) fmol/mg protein
same,ERn,"nuclear ER [1]; 2,3,7,8-TCDD (10 nM) + MCDF (100 μM)",123.1(7.1) fmol/mg protein
same,ERn,"nuclear ER [1]; 2,3,7,8-TCDD (10 nM) + MCDF (150 μM)",129.3(2.9) fmol/mg protein
same,ERn,"nuclear ER [1]; 2,3,7,8-TCDD (25 nM) + MCDF (15 μM)",146.9(9.6) fmol/mg protein
same,ERn,"nuclear ER [1]; 2,3,7,8-TCDD (25 nM) + MCDF (50 μM)",85.5(16.5) fmol/mg protein
same,ERn,"nuclear ER [1]; 2,3,7,8-TCDD (25 nM) + MCDF (75 μM)",91.3(9.7) fmol/mg protein
same,ERn,"nuclear ER [1]; 2,3,7,8-TCDD (25 nM) + MCDF (100 μM)",100.5 (10.4) fmol/mg protein
same,ERn,"nuclear ER [1]; 2,3,7,8-TCDD (25 nM) + MCDF (150 μM)",108.1(18.1) fmol/mg protein
same,ERn levels in MCF-7 cells,nuclear ER [1]; MCDF,significantly decreased
same,ERn,nuclear ER [1]; MCDF alone (15 μM),207.5 (6.6) fmol/mg protein
same,ERn,nuclear ER [1]; MCDF alone (50 μM),171.6 (13.7) fmol/mg protein
same,ERn,nuclear ER [1]; MCDF alone (100 μM),135.8 (4.5) fmol/mg protein
same,ERn,nuclear ER [1]; MCDF alone (150 μM),114.2 (7.9) fmol/mg protein
same,"ERn levels, combined treatment vs either 2,3,7,8-TCDD or MCDF","nuclear ER [1]; MCDF plus 2,3,7,8-TCDD",not significantly different
same,combined effects on ERn levels in MCF-7 cells,"nuclear ER [1]; MCDF plus 2,3,7,8-TCDD",clearly not additive
same,nuclear ER levels,"nuclear ER [1]; TCDD (10 nM), MCDF (100 nM)",decrease in nuclear ER levels
same,ERn,nuclear ER [1]; alone (75 μM),141.8 (13.6) fmol/mg protein
same,ERn,"nuclear ER [1]; estradiol (10 nM) + 2,3,7,8-TCDD (10 nM) plus MCDF (15 nM)",133.1 (14.3) fmol/mg protein
same,ERn,"nuclear ER [1]; estradiol (10 nM) + 2,3,7,8-TCDD (10 nM) plus MCDF (50 μM)",122.3 (5.5) fmol/mg protein
same,ERn,"nuclear ER [1]; estradiol (10 nM) + 2,3,7,8-TCDD (10 nM) plus MCDF (100 μM)",125.5 (9.7) fmol/mg protein
same,ERn,"nuclear ER [1]; estradiol (10 nM) + 2,3,7,8-TCDD (25 nM) plus MCDF (15 μM)",132.6 (2.1) fmol/mg protein
same,ERn,"nuclear ER [1]; estradiol (10 nM) + 2,3,7,8-TCDD (25 nM) plus MCDF (50 μM)",130.5 (5.3) fmol/mg protein
same,ERn,"nuclear ER [1]; estradiol (10 nM) + 2,3,7,8-TCDD (25 μM) plus MCDF (100 μM)",123.8 (8.3) fmol/mg protein
same,ERn,nuclear ER [1]; estradiol (10 nM) + MCDF (15 μM),113.4 (3.9) fmol/mg protein
same,ERn,nuclear ER [1]; estradiol (10 nM) + MCDF (50 μM),103.4 (17.6) fmol/mg protein
same,ERn,nuclear ER [1]; estradiol (10 nM) + MCDF (100 μM),106.4 (7.9) fmol/mg protein
same,17β-estradiol-induced accumulation of nuclear ER levels in MCF-7 cells,nuclear ER [2],inhibits
same,upregulation of uterine nuclear and cytosolic estrogen receptor levels by 17β-estradiol,estrogen receptor,inhibits
same,uterine and hepatic cytosolic and nuclear estrogen receptor levels,estrogen receptor,dose response decrease
same,Hepatic PRc,[3]; MCDF 10 μmol/kg,74.3 ± 8.1 fmol/mg protein
same,Hepatic PRn,[3]; MCDF 10 μmol/kg,8.9 ± 1.5 fmol/mg protein
same,Uterine PRc,[3]; MCDF 10 μmol/kg,980 ± 34.6 fmol/mg protein
same,Uterine PRn,[3]; MCDF 10 μmol/kg,390 ± 31.6 fmol/mg protein
same,Hepatic PRc,[3]; MCDF 50 μmol/kg,66.0 ± 7.1 fmol/mg protein
same,Hepatic PRn,[3]; MCDF 50 μmol/kg,7.6 ± 1.0 fmol/mg protein
same,Uterine PRc,[3]; MCDF 50 μmol/kg,886 ± 20.1 fmol/mg protein
same,Uterine PRn,[3]; MCDF 50 μmol/kg,290 ± 30.2 fmol/mg protein
same,Hepatic PRc,[3]; MCDF 100 μmol/kg,40.2 ± 3.2 fmol/mg protein
same,Hepatic PRn,[3]; MCDF 100 μmol/kg,6.8 ± 1.0 fmol/mg protein
same,Uterine PRc,[3]; MCDF 100 μmol/kg,811 ± 26.4 fmol/mg protein
same,Uterine PRn,[3]; MCDF 100 μmol/kg,240 ± 26.1 fmol/mg protein
same,constitutive uterine hepatic progesterone receptor levels,[3]; MCDF 50 and 100 μmol/kg,dose dependent decrease
same,Hepatic PRc,"[3]; Table 11, cotreatment with E-2",108.9 ± 11.1 fmol/mg protein
same,Hepatic PRn,"[3]; Table 11, cotreatment with E-2",6.4 ± 1.0 fmol/mg protein
same,Uterine PRc,"[3]; Table 11, cotreatment with E-2",941.2 ± 45.1 fmol/mg protein
same,Uterine PRn,"[3]; Table 11, cotreatment with E-2",602 ± 11.4 fmol/mg protein
same,Hepatic PRc,"[3]; rat, in vivo",60.6 ± 8.4 fmol/mg protein
same,Hepatic PRn,"[3]; rat, in vivo",5.1 ± 1.0 fmol/mg protein
same,Uterine PRc,"[3]; rat, in vivo",805.3 ± 29.0 fmol/mg protein
same,Uterine PRn,"[3]; rat, in vivo",205 ± 10.6 fmol/mg protein
same,"uterine and hepatic estrogen receptors and progesterone receptor levels, of corresponding levels with 17β-estradiol alone (3rd of four values)","[3]; rat, in vivo",36%
same,"uterine and hepatic estrogen receptors and progesterone receptor levels, of corresponding levels with 17β-estradiol alone (4th of four values)","[3]; rat, in vivo",75%
same,Hepatic ERc,estrogen receptor (ER); MCDF 10 μmol/kg,6.6 ± 0.5 fmol/mg protein
same,Hepatic ERn,estrogen receptor (ER); MCDF 10 μmol/kg,6.1 ± 1.0 fmol/mg protein
same,Uterine ERc,estrogen receptor (ER); MCDF 10 μmol/kg,137.7 ± 11.6 fmol/mg protein
same,Uterine ERn,estrogen receptor (ER); MCDF 10 μmol/kg,15.8 ± 1.9 fmol/mg protein
same,Hepatic ERc,estrogen receptor (ER); MCDF 50 μmol/kg,4.6 ± 0.8 fmol/mg protein
same,Hepatic ERn,estrogen receptor (ER); MCDF 50 μmol/kg,3.5 ± 0.6 fmol/mg protein
same,Uterine ERc,estrogen receptor (ER); MCDF 50 μmol/kg,110.3 ± 6.6 fmol/mg protein
same,Uterine ERn,estrogen receptor (ER); MCDF 50 μmol/kg,13.2 ± 2.1 fmol/mg protein
same,Hepatic ERc,estrogen receptor (ER); MCDF 100 μmol/kg,3.1 ± 0.3 fmol/mg protein
same,Hepatic ERn,estrogen receptor (ER); MCDF 100 μmol/kg,3.1 ± 0.7 fmol/mg protein
same,Uterine ERc,estrogen receptor (ER); MCDF 100 μmol/kg,90.2 ± 11.2 fmol/mg protein
same,Uterine ERn,estrogen receptor (ER); MCDF 100 μmol/kg,11.5 ± 1.0 fmol/mg protein
same,constitutive uterine hepatic estrogen receptors,estrogen receptor (ER); MCDF 50 and 100 μmol/kg,dose dependent decrease
same,Hepatic ERc,"estrogen receptor (ER); Table 11, cotreatment with E-2",8.1 ± 1.2 fmol/mg protein
same,Hepatic ERn,"estrogen receptor (ER); Table 11, cotreatment with E-2",3.6 ± 0.9 fmol/mg protein
same,Uterine ERc,"estrogen receptor (ER); Table 11, cotreatment with E-2",93.5 ± 4.0 fmol/mg protein
same,Uterine ERn,"estrogen receptor (ER); Table 11, cotreatment with E-2",18.5 ± 1.2 fmol/mg protein
same,Hepatic ERc,"estrogen receptor (ER); rat, in vivo",3.7 ± 1.1
same,Hepatic ERn,"estrogen receptor (ER); rat, in vivo",3.1 ± 0.2
same,Uterine ERc,"estrogen receptor (ER); rat, in vivo",67.8 ± 2.5
same,Uterine ERn,"estrogen receptor (ER); rat, in vivo",13.0 ± 1.1
same,"uterine and hepatic estrogen receptors and progesterone receptor levels, of corresponding levels with 17β-estradiol alone (1st of four values)","estrogen receptor (ER); rat, in vivo",43%
same,"uterine and hepatic estrogen receptors and progesterone receptor levels, of corresponding levels with 17β-estradiol alone (2nd of four values)","estrogen receptor (ER); rat, in vivo",59%

# Reference: patent US5516790A, “Synthesis and application of alkyl-substituted dibenzofurans as antitumorigenic agents” (Texas A&M University System Technology Licensing Office, priority 1994, dated 1996)
